Results: US5665745A, “Heterocyclic compounds and their preparation and use” (Eli Lilly and Company, priority 1995, dated 1997)
Like-named read-outs stand apart in the source and are kept apart here.

What was measured:
M1 -sites = conditions: background statement; cited from earlier work
M2 -sites = conditions: background statement; cited from earlier work
[1] = target: muscarinic receptor in the CNS; conditions: cited from earlier work
[2] = target: muscarinic acetylcholine receptors; experiment: inhibition of specific binding of ^3 H-Oxotremorine-M (^3 H-Oxo); design: species or system rat (male Wistar; conditions: ^3 H-Oxotremorine 1.0 nM, rat cortex, 30 min. at 25° C.
Method in brief: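 Rat cortex membranes (male Wistar) in 20 mM Hepes pH 7.4 incubated with 1.0 nM ^3H-Oxotremorine-M (final) and test compound for 30 min at 25 °C; arecoline defines non-specific binding. Bound radioactivity by filtration and scintillation counting; IC50 (nM) from a single concentration via Co/Cx mass-action formula, reflecting high- and medium-affinity sites.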

[3] = target: T1, muscarinic receptors (M1 -site, pirenzepine sensitive site) (Rattus norvegicus, UniProt P08482); experiment: inhibition of ^3 HPRZ (pirenzepine, [N-methyl-^3 H]) binding to rat cerebral cortex membranes; design: species or system rat (male Wistar
T1 construct: from tissue; host or cells: cerebral cortex membranes of male Wistar rats
T1 sequence (P08482 1-460): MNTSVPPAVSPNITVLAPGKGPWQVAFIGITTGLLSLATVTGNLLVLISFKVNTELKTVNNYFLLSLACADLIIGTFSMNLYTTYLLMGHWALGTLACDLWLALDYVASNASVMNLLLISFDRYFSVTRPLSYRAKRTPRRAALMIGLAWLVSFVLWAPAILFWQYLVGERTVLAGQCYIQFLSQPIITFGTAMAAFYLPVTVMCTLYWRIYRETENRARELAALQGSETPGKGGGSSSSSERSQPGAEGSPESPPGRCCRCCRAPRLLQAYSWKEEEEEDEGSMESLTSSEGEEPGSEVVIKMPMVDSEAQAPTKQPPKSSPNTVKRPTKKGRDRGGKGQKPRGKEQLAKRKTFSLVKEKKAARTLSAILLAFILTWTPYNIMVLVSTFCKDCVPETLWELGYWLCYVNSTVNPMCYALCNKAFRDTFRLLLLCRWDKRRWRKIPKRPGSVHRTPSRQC
Method in brief: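 Male Wistar rat cortex membranes in 20 mM Hepes pH 7.4 were incubated with 1.0 nM (final) [3H]pirenzepine for 60 min at 20° C; nonspecific binding was defined with 1 μg/mL atropine. Filtration and scintillation counting were used, and IC50 was calculated from a single concentration assuming mass-action kinetics.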

[4] = ^3 HPRZ 1.0 nM, rat cortex, 60 min. at 20° C., read-out: ^3 HPRZ IC50 (head from b208 on: Pir IC-50)

**Q.** What does the source list for `CN1CCN(CC(=O)N2c3ccccc3C(=O)Nc3cccnc32)CC1` [pirenzepine]?
**A.** selectivity for muscarinic receptor subtype (M1 -sites): selective for M1 -sites; interaction with M2 -sites (M2 -sites): also interact with M2 -sites

**Q.** With `C[N+](C)(C)CC#CCN1CCCC1=O` [^3 H-Oxo] as the compound, how does the Kd ([1]; first of three sites labeled (high affinity)) read?
**A.** 1.8 nM

**Q.** What about the Kd ([1]; second of three sites labeled (medium affinity)) of the same compound?
**A.** 20 nM

**Q.** What about the Kd ([1]; third of three sites labeled, read-out: affinity) of the same compound?
**A.** 3000 nM

**Q.** For `C=CCCOc1nsnc1OC1CN2CCC1CC2` (racemic) [Compound 108, (±)-3-(3-Butenyloxy)-4-(1-azabicyclo[2.2.2]octyl-3-oxy)-1,2,5-thiadiazole], which IC50 [2] is on record?
**A.** 9.1 nM

**Q.** What about the IC50 [3] of the same compound?
**A.** 56.1 nM

**Q.** With `COc1ccc(CCCOc2nsnc2O[C@@H]2CN3CCC[C@H]2C3)cc1` (relative stereo) [Compound 193, (±)-endo-3-[3-(4-Methoxyphenyl)propoxy]-4-(1-azabicyclo[3.2.1]octyl-6-oxy)-1,2,5-thiadiazole] as the compound, how does the IC50 [2] read?
**A.** 3.7 nM

**Q.** And the IC50 [3, 4]?
**A.** 10 nM

**Q.** Which IC50 [2] does the source give for `CCCCOc1nsnc1O[C@@H]1CCC[C@@H]1N` [Compound 135, 3-Butyloxy-4-(cis-1R-2-aminocyclopentanoxy)-1,2,5-thiadiazole] here?
**A.** > 1000 nM

**Q.** What about the IC50 [3, 4] of the same compound?
**A.** > 1000 nM

**Q.** With `CCCCOc1nsnc1O[C@H]1CN2CC[C@H]1C2` (relative stereo) [Compound 26, (±)-Exo-3-butyloxy-4-(1-azabicyclo[2.2.1]heptyl-3-oxy)-1,2,5-thiadiazole] as the compound, how does the IC50 [2] read?
**A.** 11 nM

**Q.** What about the IC50 [3] of the same compound?
**A.** 37 nM

**Q.** Which IC50 [2] does the source give for `CC#CCOc1nsnc1O[C@@H]1CN2CCC[C@H]1C2` (relative stereo) [Compound 168] here?
**A.** 1 nM

**Q.** What about the IC50 [3, 4] of the same compound?
**A.** 6.4 nM

**Q.** Which IC50 [2] does the source give for `FC(F)(F)C(F)(F)COc1nsnc1O[C@@H]1CN2CCC[C@H]1C2` (relative stereo) [Compound 190, (±)-endo-3-(3,3,3,2,2,Pentafluoropropoxy)-4-(1-azabicyclo[3.2.1]octyl-6-oxy)-1,2,5-thiadiazole] here?
**A.** 3.9 nM

**Q.** What about the IC50 [3, 4] of the same compound?
**A.** 2.5 nM

**Q.** What does the source list for `CCCS(=O)(=O)c1nsnc1OC1CN2CCC1CC2` (racemic) [Compound 103, (±)-3-propylsulfonyl-4-(1-azabicyclo[2.2.2]octyl-3-oxy)-1,2,5-thiadiazole]?
**A.** IC50 [2]: 107 nM; IC50 [3, 4]: 115 nM

**Q.** What does the source list for `C=CCCCOc1nsnc1OC1CN2CCC1CC2` (racemic) [Compound 122, (±)-3-(4-pentenyloxy)-4-(1-azabicyclo[2.2.2]octyl-3-oxy)-1,2,5-thiadiazole]?
**A.** IC50 [2]: 11 nM; IC50 [3]: 45 nM

**Q.** With `c1ccc(SCCOc2nsnc2OC2CN3CCC2CC3)cc1` (racemic) [Compound 126, (±)-3-(2-[Phenylthio]ethoxy)-4-(1-azabicyclo[2.2.2]octyl-3-oxy)-1,2,5-thiadiazole] as the compound, how does the IC50 [2] read?
**A.** 19 nM

**Q.** And the IC50 [3]?
**A.** 72 nM

**Q.** Which IC50 [2] does the source give for `O=C1SCCN1CCCSc1nsnc1OC1CN2CCC1CC2` (racemic) [Compound 61, (±)-3-(3-N-(2-Thiazolidonyl)propylthio)-4-(1-azabicyclo[2.2.2]octyl-3-oxy)1,2,5-thiadiazole] here?
**A.** 1.1 nM

**Q.** What about the IC50 [3] of the same compound?
**A.** 5.8 nM

**Q.** With `Cc1ncsc1CCOc1nsnc1O[C@@H]1CN2CCC[C@H]1C2` (relative stereo) [Compound 171, (±)-endo-3-(2-(4-Methyl-1,3-thiazol-5-yl)ethoxy)-4-(1-azabicyclo[3.2.1]octyl-6-oxy)-1,2,5-thiadiazole] as the compound, how does the IC50 [2] read?
**A.** 19 nM

**Q.** And the IC50 [3, 4]?
**A.** 27 nM

**Q.** For `N#Cc1ccc(CSc2nsnc2OC2CN3CCC2CC3)cc1` (racemic) [Compound 41, (±)-3-(4-Cyanobenzylthio)-4-(1-azabicyclo[2.2.2]octyl-3-oxy)-1,2,5-thiadiazole], which IC50 [2] is on record?
**A.** 25 nM

**Q.** And the IC50 [3]?
**A.** 19 nM

**Q.** Which IC50 [2] does the source give for `c1ccc(OCCSc2nsnc2OC2CN3CCC2CC3)cc1` (racemic) [Compound 44, (±)-3-(2-Phenyloxyethylthio)-4-(1-azabicyclo[2.2.2]octyl-3-oxy)-1,2,5-thiadiazole] here?
**A.** 7.1 nM

**Q.** What about the IC50 [3] of the same compound?
**A.** 15 nM

**Q.** With `c1csc(Sc2nsnc2OC2CN3CCC2CC3)c1` (racemic) [Compound 60, (±)-3-(2-Thienyl)thio)-4-(1-azabicyclo[2.2.2]octyl-3-oxy)-1,2,5-thiadiazole] as the compound, how does the IC50 [2] read?
**A.** 19 nM

**Q.** And the IC50 [3]?
**A.** 14 nM

**Q.** Which IC50 [2] does the source give for `c1ccc(OCCOc2nsnc2OC2CN3CCC2CC3)cc1` (racemic) [Compound 112, (±)-3-(2-Phenoxyethoxy)-4-(1-azabicyclo[2.2.2]octyl-3-oxy)-1,2,5-thiadiazole] here?
**A.** 16 nM

**Q.** And the IC50 [3, 4]?
**A.** 153 nM

**Q.** Which results are given for `CCCCSc1nsnc1O[C@@H]1CCC[C@H]1N(C)C` (racemic) [Compound 143, (±)-trans-3-Butylthio-4-(2-dimethylaminocyclopentyloxy)-1,2,5-thiadiazole]?
**A.** IC50 [2]: 1400 nM; IC50 [3, 4]: 637 nM

**Q.** Which results are given for `C/C=C\COc1nsnc1O[C@@H]1CN2CCC[C@H]1C2` (relative stereo) [Compound 181, (±)-endo-3-(cis-2-Butenyloxy)-4-(1-azabicyclo[3.2.1]octyl-6-oxy)-1,2,5-thiadiazole]?
**A.** IC50 [2]: 1.1 nM; IC50 [3, 4]: 2.2 nM
